Consider four molecules from PubChem BioAssay AID2060900 (Molecular Pharmacology Branch, DTP, NCI, 2025).

This experiment relates to 521955-158-R2-J5-PDC complex spheroids, viability. Kind of experiment: Anticancer human tumor 521955-158-R2-J5-PDC patient-derived pancreatic carcinoma cell line growth inhibition [RAS]. Particulars: for viability, T/C: stronger effect = lower value. The method, boiled down: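 Multi-cell-type spheroids: tumor cells plus HUVEC endothelial cells and mesenchymal stem cells. RAS-pathway inhibitors were combined with targeted agents, each dosed in half-log steps down from clinical Cmax, or from 10 microM when Cmax was unknown.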

Where “and” joins values, the source holds several entries; their conditions need not be identical. Equal values may be shown once.
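Also: compound exposure lasted seven days before the viability read.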
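For viability, T/C in this document: spheroids also contain HUVEC endothelial cells and mesenchymal stem cells as stroma.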

As to `CC1(O)CCCC1n1c(=O)c(C(F)F)cc2cnc(NC3CCN(S(C)(=O)=O)CC3)nc21` (stereo not drawn) + C#Cc1c(F)ccc2cc(O)cc(-c3ncc4c(N5CC6CCC(C5)N6)nc(OCC56CCCN5CC(F)C6)nc4c3F)c12, the IC50 (curve of first compound, second compound 0.0316 µM) is > 10 µM; the IC50 (curve of first compound, second compound 0.1 µM) was 3.76 µM; the IC50 (curve of first compound, second compound 0.316 µM) was < 0.0316 µM; the IC50 (curve of first compound, second compound 1 µM) came to 0.0316 µM; the IC50 (curve of first compound, second compound 3.16 µM) is < 0.0316 µM; the IC50 (curve of first compound, second compound 10 µM) is < 0.0316 µM. Moreover, the viability, T/C was 53.9% (second compound 0.0316 µM, first compound 0.0316 µM); 48% (second compound 0.0316 µM, first compound 0.1 µM); 60.1% (second compound 0.0316 µM, first compound 0.316 µM); 68.4% (second compound 0.0316 µM, first compound 1 µM); 75.1% (second compound 0.0316 µM, first compound 3.16 µM); 24.9% (second compound 0.0316 µM, first compound 10 µM). The viability, T/C is 48.8% (second compound 0.1 µM, first compound 0.0316 µM); 56.6% (second compound 0.1 µM, first compound 0.1 µM); 43.4% (second compound 0.1 µM, first compound 0.316 µM); 53.9% (second compound 0.1 µM, first compound 1 µM); 73% (second compound 0.1 µM, first compound 3.16 µM); 21.3% (second compound 0.1 µM, first compound 10 µM). Besides, the viability, T/C is 44.5% (second compound 0.316 µM, first compound 0.0316 µM); 37.4% (second compound 0.316 µM, first compound 0.1 µM); 41.1% (second compound 0.316 µM, first compound 0.316 µM); 51.3% (second compound 0.316 µM, first compound 1 µM); 63.1% (second compound 0.316 µM, first compound 3.16 µM); 19.5% (second compound 0.316 µM, first compound 10 µM). Moreover, the viability, T/C (second compound 1 µM, first compound 0.0316 µM) was 52.3%; the viability, T/C (second compound 1 µM, first compound 0.1 µM) was 41.4%; the viability, T/C (second compound 1 µM, first compound 0.316 µM) is 39.8%; the viability, T/C (second compound 1 µM, first compound 1 µM) is 47.8%; the viability, T/C (second compound 1 µM, first compound 3.16 µM) is 59.5%; the viability, T/C (second compound 1 µM, first compound 10 µM) was 21.6%. Moreover, the viability, T/C by setting is: (second compound 3.16 µM, first compound 0.0316 µM) 45.9%; (second compound 3.16 µM, first compound 0.1 µM) 31.5%; (second compound 3.16 µM, first compound 0.316 µM) 38.8%; (second compound 3.16 µM, first compound 1 µM) 40.6%; (second compound 3.16 µM, first compound 3.16 µM) 56.6%; (second compound 3.16 µM, first compound 10 µM) 24.4%. In addition, the viability, T/C runs as follows: (second compound 10 µM, first compound 0.0316 µM) 42.4%; (second compound 10 µM, first compound 0.1 µM) 30.6%; (second compound 10 µM, first compound 0.316 µM) 40.4%; (second compound 10 µM, first compound 1 µM) 46.2%; (second compound 10 µM, first compound 3.16 µM) 62.8%; (second compound 10 µM, first compound 10 µM) 12.3%.
Take `C[C@@H](NC(=O)c1ncnc(N)c1Cl)c1ncc(C(=O)Nc2cc(C(F)(F)F)c(Cl)cn2)s1`: the viability, T/C (compound 10 µM) was 60.9% [middle of 4 runs]. Also, for the setting “curve of compound”, the IC50 is > 10 µM and 5.73 µM.
For `NC1c2ccccc2OC12CCN(c1cnc3c(N4CCCc5ncccc54)n[nH]c3n1)CC2` (stereo not drawn), the viability, T/C runs as follows: (compound 0.0316 µM) 67.5% [middle of 4 runs]; (compound 0.1 µM) 58.8% [middle of 4 runs]; (compound 0.316 µM) 55.2% [middle of 4 runs]; (compound 1 µM) 53.2% [middle of 4 runs]; (compound 3.16 µM) 54.8% [middle of 4 runs]; (compound 10 µM) 61.6% [middle of 4 runs]. In addition, the IC50 (curve of compound) is > 10 µM and 1.72 µM.
For the molecule `CC(C)n1nc(-c2ccc3oc(N)nc3c2)c2c(N)ncnc21` + CCn1c(-c2cccnc2C(C)OC)c2c3cc(ccc31)N1CCOC(CC(NC(=O)C(C(C)C)N(C)C(=O)C3(F)CCN(C(=O)C#CC(C)(C)N(C)C)CC3)C(=O)N3CCCC(N3)C(=O)OCC(C)(C)C2)C1, the IC50 by setting is: (curve of first compound, second compound 0.000949 µM) 0.021 µM; (curve of first compound, second compound 0.003 µM) 0.02 µM; (curve of first compound, second compound 0.00949 µM) 0.0236 µM; (curve of first compound, second compound 0.03 µM) 0.0271 µM; (curve of first compound, second compound 0.0949 µM) 0.0192 µM; (curve of first compound, second compound 0.3 µM) 0.0135 µM. Further, the viability, T/C reads like this: (second compound 0.000949 µM, first compound 0.000316 µM) 96.7%; (second compound 0.000949 µM, first compound 0.001 µM) 77.1%; (second compound 0.000949 µM, first compound 0.00316 µM) 83.1%; (second compound 0.000949 µM, first compound 0.01 µM) 61.4%; (second compound 0.000949 µM, first compound 0.0316 µM) 41.8%; (second compound 0.000949 µM, first compound 0.1 µM) 36.5%. The viability, T/C is, setting by setting: (second compound 0.003 µM, first compound 0.000316 µM) 82%; (second compound 0.003 µM, first compound 0.001 µM) 91%; (second compound 0.003 µM, first compound 0.00316 µM) 91.4%; (second compound 0.003 µM, first compound 0.01 µM) 64.8%; (second compound 0.003 µM, first compound 0.0316 µM) 41.5%; (second compound 0.003 µM, first compound 0.1 µM) 30.1%. Moreover, the viability, T/C (second compound 0.00949 µM, first compound 0.000316 µM) was 93.3%; the viability, T/C (second compound 0.00949 µM, first compound 0.001 µM) is 85.7%; the viability, T/C (second compound 0.00949 µM, first compound 0.00316 µM) was 83.6%; the viability, T/C (second compound 0.00949 µM, first compound 0.01 µM) is 70.3%; the viability, T/C (second compound 0.00949 µM, first compound 0.0316 µM) is 42.5%; the viability, T/C (second compound 0.00949 µM, first compound 0.1 µM) is 29.2%. Also, the viability, T/C is 89.2% (second compound 0.03 µM, first compound 0.000316 µM); 101% (second compound 0.03 µM, first compound 0.001 µM); 90.4% (second compound 0.03 µM, first compound 0.00316 µM); 69.8% (second compound 0.03 µM, first compound 0.01 µM); 48.6% (second compound 0.03 µM, first compound 0.0316 µM); 34.2% (second compound 0.03 µM, first compound 0.1 µM). Moreover, the viability, T/C by setting is: (second compound 0.0949 µM, first compound 0.000316 µM) 73.5%; (second compound 0.0949 µM, first compound 0.001 µM) 83.1%; (second compound 0.0949 µM, first compound 0.00316 µM) 86.2%; (second compound 0.0949 µM, first compound 0.01 µM) 63.3%; (second compound 0.0949 µM, first compound 0.0316 µM) 39.9%; (second compound 0.0949 µM, first compound 0.1 µM) 28.8%. In addition, the viability, T/C by setting is: (second compound 0.3 µM, first compound 0.000316 µM) 73.9%; (second compound 0.3 µM, first compound 0.001 µM) 70.3%; (second compound 0.3 µM, first compound 0.00316 µM) 85.2%; (second compound 0.3 µM, first compound 0.01 µM) 55.2%; (second compound 0.3 µM, first compound 0.0316 µM) 40.7%; (second compound 0.3 µM, first compound 0.1 µM) 30%.
